Tests used:
[1] = target: T1, 5-hydroxytryptamine receptor 2C (Homo sapiens, UniProt P28335); assay: DRUGMATRIX: Serotonin (5-Hydroxytryptamine) 5-HT2C radioligand binding (ligand: [3H] Mesulergine); assay type: cell membranes, CHO-K1, Membrane; settings: cho-k1; Not Active = under 50% inhibition at 10 µM
T1 sequence (P28335 whole entry): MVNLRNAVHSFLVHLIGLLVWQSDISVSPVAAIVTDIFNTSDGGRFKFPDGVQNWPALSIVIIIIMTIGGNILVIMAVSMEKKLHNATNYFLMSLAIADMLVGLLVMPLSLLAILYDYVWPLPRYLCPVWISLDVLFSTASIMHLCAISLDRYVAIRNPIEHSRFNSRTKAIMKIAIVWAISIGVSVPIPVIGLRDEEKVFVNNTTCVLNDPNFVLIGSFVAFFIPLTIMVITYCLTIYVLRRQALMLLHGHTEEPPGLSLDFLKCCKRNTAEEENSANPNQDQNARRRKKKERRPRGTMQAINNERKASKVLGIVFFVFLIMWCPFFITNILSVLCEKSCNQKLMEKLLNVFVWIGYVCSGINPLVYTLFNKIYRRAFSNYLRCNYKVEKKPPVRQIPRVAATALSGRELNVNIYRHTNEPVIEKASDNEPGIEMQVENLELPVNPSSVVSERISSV

Melanocortin receptor 5 = Melanocortin receptor 5 (Homo sapiens, UniProt P33032); assay type: cell membranes, HEK293, Membrane; settings: hek293; also: in other assays of this panel Not Active means under 50% inhibition at 10 µM
[2] = DRUGMATRIX: Interleukin IL-1 radioligand binding (ligand: [125I] interleukin 1beta); assay type: cell membranes, Membrane; settings: nih3t3; Not Active = under 50% inhibition at 10 µM
Insulin receptor = Insulin receptor (Rattus norvegicus, UniProt P15127); assay type: cell membranes, Wistar, Liver, Membrane; also: in other assays of this panel Not Active means under 50% inhibition at 10 µM
[3] = target: Delta-type opioid receptor (Homo sapiens, UniProt P41143); assay type: cell membranes, Membrane; settings: hek293; also: in other assays of this panel Not Active means under 50% inhibition at 10 µM
[4] = target: T2, C-X-C chemokine receptor type 2 (Homo sapiens, UniProt P25025); assay type: cell membranes, Membrane; settings: cho-k1; also: in other assays of this panel Not Active means under 50% inhibition at 10 µM
T2 sequence (P25025 whole entry): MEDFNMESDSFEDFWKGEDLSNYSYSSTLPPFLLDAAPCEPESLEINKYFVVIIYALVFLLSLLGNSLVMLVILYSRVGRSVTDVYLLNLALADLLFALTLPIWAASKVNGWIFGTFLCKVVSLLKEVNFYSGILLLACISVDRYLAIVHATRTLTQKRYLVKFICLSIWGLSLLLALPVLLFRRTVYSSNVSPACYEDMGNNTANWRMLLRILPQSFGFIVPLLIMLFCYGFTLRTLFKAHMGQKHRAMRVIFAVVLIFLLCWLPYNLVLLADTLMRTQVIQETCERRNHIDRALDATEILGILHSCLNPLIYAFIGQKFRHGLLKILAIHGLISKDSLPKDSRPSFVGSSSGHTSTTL

[5] = DRUGMATRIX: Platelet-Derived Growth Factor (PDGF) radioligand binding (ligand: [125I] PDGF); assay type: cell-based; settings: nih3t3; Not Active = under 50% inhibition at 10 µM
[6] = target: T3, Cholecystokinin receptor type A (Homo sapiens, UniProt P32238); assay type: cell membranes, Membrane; settings: 1321-n1; also: in other assays of this panel Not Active means under 50% inhibition at 10 µM
T3 sequence (P32238 whole entry): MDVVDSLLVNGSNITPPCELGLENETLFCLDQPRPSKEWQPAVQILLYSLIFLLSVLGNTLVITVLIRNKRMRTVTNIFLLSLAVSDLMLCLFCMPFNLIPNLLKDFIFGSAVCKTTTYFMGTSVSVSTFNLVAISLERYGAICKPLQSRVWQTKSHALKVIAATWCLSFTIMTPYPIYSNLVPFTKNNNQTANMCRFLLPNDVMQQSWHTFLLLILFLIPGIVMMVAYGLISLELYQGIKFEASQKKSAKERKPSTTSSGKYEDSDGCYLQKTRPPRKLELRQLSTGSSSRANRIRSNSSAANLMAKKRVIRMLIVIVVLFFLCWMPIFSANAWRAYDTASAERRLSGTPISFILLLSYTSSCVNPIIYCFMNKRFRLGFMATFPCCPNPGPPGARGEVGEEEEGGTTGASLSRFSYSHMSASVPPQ

Delta-type opioid receptor, sequence (P41143 whole entry): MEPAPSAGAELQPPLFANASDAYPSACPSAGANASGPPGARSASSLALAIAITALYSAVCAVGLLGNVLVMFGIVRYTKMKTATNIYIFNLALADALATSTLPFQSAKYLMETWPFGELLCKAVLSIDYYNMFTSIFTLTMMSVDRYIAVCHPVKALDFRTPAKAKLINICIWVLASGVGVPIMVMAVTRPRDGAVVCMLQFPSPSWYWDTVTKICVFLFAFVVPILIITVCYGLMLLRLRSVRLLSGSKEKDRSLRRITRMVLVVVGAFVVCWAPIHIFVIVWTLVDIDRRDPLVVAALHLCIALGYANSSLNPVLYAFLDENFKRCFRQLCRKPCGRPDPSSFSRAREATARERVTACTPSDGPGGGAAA
Insulin receptor, sequence (P15127 27-759 limits assumed): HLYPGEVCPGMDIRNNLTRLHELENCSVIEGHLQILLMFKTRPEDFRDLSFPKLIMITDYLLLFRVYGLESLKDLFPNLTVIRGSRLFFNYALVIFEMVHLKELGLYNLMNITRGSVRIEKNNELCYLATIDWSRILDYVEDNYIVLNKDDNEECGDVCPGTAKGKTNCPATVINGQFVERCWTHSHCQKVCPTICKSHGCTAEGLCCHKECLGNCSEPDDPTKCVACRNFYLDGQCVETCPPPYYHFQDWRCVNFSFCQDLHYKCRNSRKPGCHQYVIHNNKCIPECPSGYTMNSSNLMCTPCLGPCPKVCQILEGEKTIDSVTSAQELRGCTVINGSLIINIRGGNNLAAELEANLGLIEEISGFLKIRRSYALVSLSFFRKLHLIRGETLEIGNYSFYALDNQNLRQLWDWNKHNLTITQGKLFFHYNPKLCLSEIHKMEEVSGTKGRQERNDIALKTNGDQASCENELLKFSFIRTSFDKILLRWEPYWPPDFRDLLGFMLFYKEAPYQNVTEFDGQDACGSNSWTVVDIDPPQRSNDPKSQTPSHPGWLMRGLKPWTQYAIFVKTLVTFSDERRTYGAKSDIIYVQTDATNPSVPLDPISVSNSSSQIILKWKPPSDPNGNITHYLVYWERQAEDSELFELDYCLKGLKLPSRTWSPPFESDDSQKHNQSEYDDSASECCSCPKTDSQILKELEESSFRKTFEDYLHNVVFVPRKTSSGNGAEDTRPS
Insulin receptor, sequence (P15127 764-1383 limits assumed): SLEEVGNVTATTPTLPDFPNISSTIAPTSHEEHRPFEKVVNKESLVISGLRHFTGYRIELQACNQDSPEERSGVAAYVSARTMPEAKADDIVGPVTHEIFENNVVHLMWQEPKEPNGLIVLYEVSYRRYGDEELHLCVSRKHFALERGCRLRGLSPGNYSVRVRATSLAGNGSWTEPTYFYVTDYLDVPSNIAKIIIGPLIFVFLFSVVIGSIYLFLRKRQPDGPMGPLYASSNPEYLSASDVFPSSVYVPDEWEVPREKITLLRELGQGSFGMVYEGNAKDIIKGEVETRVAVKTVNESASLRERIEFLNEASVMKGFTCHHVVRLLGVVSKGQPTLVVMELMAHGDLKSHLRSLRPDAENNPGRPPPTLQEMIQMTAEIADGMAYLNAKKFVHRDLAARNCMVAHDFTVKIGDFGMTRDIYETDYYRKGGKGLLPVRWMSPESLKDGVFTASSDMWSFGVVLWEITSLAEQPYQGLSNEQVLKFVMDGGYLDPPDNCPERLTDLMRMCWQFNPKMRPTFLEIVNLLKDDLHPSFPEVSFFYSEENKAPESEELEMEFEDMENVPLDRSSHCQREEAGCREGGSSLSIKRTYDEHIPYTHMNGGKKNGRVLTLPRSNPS
Melanocortin receptor 5, sequence (P33032 whole entry): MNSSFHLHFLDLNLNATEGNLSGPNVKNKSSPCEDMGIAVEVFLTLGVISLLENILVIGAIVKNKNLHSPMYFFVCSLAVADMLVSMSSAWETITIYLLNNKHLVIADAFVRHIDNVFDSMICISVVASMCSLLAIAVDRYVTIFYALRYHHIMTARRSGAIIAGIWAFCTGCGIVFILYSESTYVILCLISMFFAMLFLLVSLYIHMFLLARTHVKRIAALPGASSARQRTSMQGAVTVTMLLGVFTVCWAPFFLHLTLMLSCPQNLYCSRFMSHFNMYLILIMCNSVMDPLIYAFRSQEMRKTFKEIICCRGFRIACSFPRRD

COc1c2occc2cc2ccc(=O)oc12 [METHOXSALEN]
Not Active: IC50 [1] | IC50 (Melanocortin receptor 5) | IC50 [2] | Ki [2] | IC50 (Insulin receptor) | IC50 [3] | IC50 [4] | IC50 [5] | Ki [5] | IC50 [6]

C[C@H]1C[C@@H]2[C@H]([C@@H](O)C[C@@]3(C)[C@H]2CC[C@]3(O)C(=O)CO)[C@@]2(C)C=CC(=O)C=C12 [METHYLPREDNISOLONE]
Not Active: IC50 [1] | IC50 (Melanocortin receptor 5) | IC50 [2] | Ki [2] | IC50 (Insulin receptor) | IC50 [3] | IC50 [4] | IC50 [5] | Ki [5] | IC50 [6]

Cc1cccc(C)c1OCC(C)N (stereo not given) [MEXILETINE]
Not Active: IC50 [1] | IC50 (Melanocortin receptor 5) | IC50 [2] | Ki [2] | IC50 (Insulin receptor) | IC50 [3] | IC50 [4] | IC50 [5] | Ki [5] | IC50 [6]

Nc1cc(N2CCCCC2)nc(N)[n+]1[O-] [MINOXIDIL]
Not Active: IC50 [1] | IC50 (Melanocortin receptor 5) | IC50 [2] | Ki [2] | IC50 (Insulin receptor) | IC50 [3] | IC50 [4] | IC50 [5] | Ki [5] | IC50 [6]

CO[C@H]1/C=C/O[C@@]2(C)Oc3c(C)c(O)c4c(O)c(c(/C=N/N5CCN(C6CCCC6)CC5)c(O)c4c3C2=O)NC(=O)/C(C)=C\C=C\[C@H](C)[C@H](O)[C@@H](C)[C@@H](O)[C@@H](C)[C@H](OC(C)=O)[C@@H]1C [RIFAPENTINE]
Not Active: IC50 [1] | IC50 (Melanocortin receptor 5) | IC50 [2] | Ki [2] | IC50 (Insulin receptor) | IC50 [3] | IC50 [4] | IC50 [5] | Ki [5] | IC50 [6]

CCCCOc1cc(CC2CNC(=O)N2)ccc1OC (stereo not given) [RO-201724]
Not Active: IC50 [1] | IC50 (Melanocortin receptor 5) | IC50 [2] | Ki [2] | IC50 (Insulin receptor) | IC50 [3] | IC50 [4] | IC50 [5] | Ki [5] | IC50 [6]

CC[C@@H](C(=O)[C@@H](C)[C@@H](O)[C@H](C)[C@@H]1O[C@@H]([C@@H](CC)C(=O)O)CC[C@@H]1C)[C@H]1O[C@]2(C=C[C@@H](O)[C@]3(CC[C@@](C)([C@H]4CC[C@](O)(CC)[C@H](C)O4)O3)O2)[C@H](C)C[C@@H]1C [SALINOMYCIN]
Not Active: IC50 [1] | IC50 (Melanocortin receptor 5) | IC50 [2] | Ki [2] | IC50 (Insulin receptor) | IC50 [3] | IC50 [4] | IC50 [5] | Ki [5] | IC50 [6]

O=C(Oc1ccccc1C(=O)O)c1ccccc1O [SALSALATE]
Not Active: IC50 [1] | IC50 (Melanocortin receptor 5) | IC50 [2] | Ki [2] | IC50 (Insulin receptor) | IC50 [3] | IC50 [4] | IC50 [5] | Ki [5] | IC50 [6]

O=C(O)c1cn(-c2ccc(F)cc2)c2cc(N3CCNCC3)c(F)cc2c1=O [SARAFLOXACIN]
Not Active: IC50 [1] | IC50 (Melanocortin receptor 5) | IC50 [2] | Ki [2] | IC50 (Insulin receptor) | IC50 [3] | IC50 [4] | IC50 [5] | Ki [5] | IC50 [6]

CC(C)NCC(O)c1ccc(NS(C)(=O)=O)cc1 (stereo not given) [SOTALOL]
Not Active: IC50 [1] | IC50 (Melanocortin receptor 5) | IC50 [2] | Ki [2] | IC50 (Insulin receptor) | IC50 [3] | IC50 [4] | IC50 [5] | Ki [5] | IC50 [6]

O.O.O.O.O.O.[Cl-].[Cl-].[Sr+2] [STRONTIUM CHLORIDE HEXAHYDRATE]
Not Active: IC50 [1] | IC50 (Melanocortin receptor 5) | IC50 [2] | Ki [2] | IC50 (Insulin receptor) | IC50 [3] | IC50 [4] | IC50 [5] | Ki [5] | IC50 [6]

O=C1C(CC[S+]([O-])c2ccccc2)C(=O)N(c2ccccc2)N1c1ccccc1 (stereo not given) [SULFINPYRAZONE]
Not Active: IC50 [1] | IC50 (Melanocortin receptor 5) | IC50 [2] | Ki [2] | IC50 (Insulin receptor) | IC50 [3] | IC50 [4] | IC50 [5] | Ki [5] | IC50 [6]

NC(=O)N1C(=O)/C(=C(\O)c2cccs2)c2cc(Cl)ccc21 [TENIDAP]
Not Active: IC50 [1] | IC50 (Melanocortin receptor 5) | IC50 [2] | Ki [2] | IC50 (Insulin receptor) | IC50 [3] | IC50 [4] | IC50 [5] | Ki [5] | IC50 [6]

COc1cc2nc(N3CCN(C(=O)C4CCCO4)CC3)nc(N)c2cc1OC (stereo not given) [TERAZOSIN]
Not Active: IC50 [1] | IC50 (Melanocortin receptor 5) | IC50 [2] | Ki [2] | IC50 (Insulin receptor) | IC50 [3] | IC50 [4] | IC50 [5] | Ki [5] | IC50 [6]

CN(C/C=C/C#CC(C)(C)C)Cc1cccc2ccccc12 [TERBINAFINE]
Not Active: IC50 [1] | IC50 (Melanocortin receptor 5) | IC50 [2] | Ki [2] | IC50 (Insulin receptor) | IC50 [3] | IC50 [4] | IC50 [5] | Ki [5] | IC50 [6]

Reference: ChEMBL document CHEMBL1909046, “DrugMatrix in vitro pharmacology data”
